Measured values from patent publication US20250195513A1, “DEGRADATION OF IRAK4 BY CONJUGATION OF IRAK4 INHIBITORS WITH E3 LIGASE LIGAND AND METHODS OF USE” (BeiGene, Ltd., priority 2022, published 2025).
Blank lines part the entries; values can stand above or below the molecule they belong to.

Key:
[1] = biological target: T1, IRAK4 (Homo sapiens, UniProt Q9NWZ3); assay: IRAK4 Degradation Assay (Karpas299, HTRF/TR-FRET); format: cell-based
T1 construct: endogenous in cells; host or cells: Karpas299
T1 sequence (Q9NWZ3 1-460): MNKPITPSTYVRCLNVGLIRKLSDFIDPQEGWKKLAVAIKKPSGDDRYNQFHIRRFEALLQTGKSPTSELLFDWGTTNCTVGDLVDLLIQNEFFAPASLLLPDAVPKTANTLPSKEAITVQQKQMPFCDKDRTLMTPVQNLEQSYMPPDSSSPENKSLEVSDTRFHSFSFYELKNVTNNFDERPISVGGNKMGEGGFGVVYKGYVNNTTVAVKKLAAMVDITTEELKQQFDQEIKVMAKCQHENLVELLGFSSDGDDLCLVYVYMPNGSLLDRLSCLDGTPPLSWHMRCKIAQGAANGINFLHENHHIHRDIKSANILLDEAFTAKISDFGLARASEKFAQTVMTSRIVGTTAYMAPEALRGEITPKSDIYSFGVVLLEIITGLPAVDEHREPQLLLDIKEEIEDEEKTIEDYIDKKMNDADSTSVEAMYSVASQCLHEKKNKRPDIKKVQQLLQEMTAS
How it was run: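 Compound potency as DC50 (IC50) came from four-parameter fits of percent IRAK4 degradation. IRAK4 was measured by HTRF (665/620 nm) in lysates of Karpas299 cells seeded at 0.2 million per well. Cells had been treated with compound dilutions for 5 or 24 h.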

[2] = biological target: T1, IRAK4; assay: IRAK4 Degradation Assay with Human Serum (Karpas299, HTRF/TR-FRET); format: cell-based; conditions: Karpas-299 in human serum, 24 hrs treatment; for DC50: read-out: IRAK4 degradtion with human serum assay DC50; for Dmax: read-out: IRAK4 degradtion with human serum assay Dmax (%)
Procedure: IRAK4 degradation was measured using a TR-FRET-based method (Degorce, François, et al. Current chemical genomics. 2009, 3: 22). Karpas299 resuspended in Human serum AB (GEMINI, 100-512) were seeded into 96-well plates at the density of 0.2 million cells per well and then treated with a series dilution of compounds. After 24 hrs treatment, cells were pelleted via centrifugation and washed with PBS, add 40 μL lysis buffer (Cisbio) to each well after removal of the supernatant. Plates were then incubated at room temperature with shaking for 30 minutes. A total of 16 μL of cell lysates from each well of a 96-well plate was transferred to a 384-well white assay plate. IRAK4 level was quantitated using the HTRF kit as described by the manufacturer manual (Cisbio). FRET signals were measured using a PHERAstar FSX reader (BMG Labtech).
After treatment, add HTRF lysis buffer to each well; seal the plate and incubate 1 hour at room temperature on a plate shaker; Once the cells are lysed, 16 μL of cell lysate are transferred to a PE 384-well HTRF detection plate; 4 μL of pre-mixed HTRF antibodies are added to each well; Cover the plate with a plate sealer, spin 1000 rpm for 1 min, Incubate overnight at room temperature; Read on BMG PheraStar with HTRF protocol (337 nm-665 nm-620 nm).
The inhibition (degradation) percentage of the compound was calculated by the following equation: […]
The IC50 (DC50) value of a compound can be obtained by fitting the following equation
Wherein, X and Y are known values, and IC50, Hillslope, Top and Bottom are the parameters obtained by fitting with software. Y is the inhibition percentage (calculated from the equation), X is the concentration of the compound; IC50 is the concentration of the compound when the […] is reached. The smaller the IC50 value is, the stronger the inhibitory ability of the compound is. Vice versa, the higher the IC50 value is, the weaker the ability the inhibitory ability of the compound is; Hillslope represents the slope of the fitted curve, generally around 1 *; Bottom represents the minimum value of the curve obtained by data fitting, which is generally 0%±20%; Top represents the maximum value of the curve obtained by data fitting, which is generally 100%±20%. The experimental data were fitted by calculating and analyzing with Dotmatics data analysis software.

[3] = Karpas-299 cells, 24 h treatment, maximum percentage of degradation, read-out: IRAK4 in Karpas-299 (24 h) Dmax (%)
[4] = Karpas-299 cells, 24 h treatment, read-out: IRAK4 in Karpas-299 (24 h) DC50
[5] = Karpas-299 cells, 5 h treatment, maximum percentage of degradation, read-out: IRAK4 in Karpas-299 (5 h) Dmax (%)
[6] = Karpas-299 cells, 5 h treatment, read-out: IRAK4 in Karpas-299 (5 h) DC50

SMILES: CC(C)(O)c1cc2nn([C@H]3CC[C@H](N4CCN(C(=O)C5CN(c6cc(F)c([C@H]7CCC(=O)NC7=O)c(F)c6)C5)CC4)CC3)cc2cc1NC(=O)c1ccc2cc(C(F)(F)F)cnn12 [Example 207]
Dmax [1, 3]: 97%
DC50 [1, 4]: 1.9 nM
DC50 [2]: 191 nM
Dmax [2]: 97%

SMILES: O=C1CCN(c2c(F)cc(N3CC(C(=O)N4CCN([C@H]5CC[C@H](n6cc(NC(=O)c7coc(-c8ccnc(NCC(F)(F)F)c8)n7)c(C(F)F)n6)CC5)CC4)C3)cc2F)C(=O)N1 [Example 76, N-(3-(difluoromethyl)-1-((1r,4r)-4-(4-(1-(4-(2,4-dioxotetrahydropyrimidin-1(2H)-yl)-3,5-difluorophenyl)azetidine-3-carbonyl)piperazin-1-yl)cyclohexyl)-1H-pyrazol-4-yl)-2-(2-((2,2,2-trifluoroethyl)amino)pyridin-4-yl)oxazole-4-carboxamide]
Dmax [1, 3]: 97%
DC50 [1, 4]: 3.2 nM

SMILES: O=C1CC[C@H](c2c(F)cc(N3CC(C(=O)N4CCN([C@H]5CC[C@H](n6cc7cc(NC(=O)c8cccc(C(F)(F)F)n8)c(OC8COC8)nc7n6)CC5)CC4)C3)cc2F)C(=O)N1 [Example 98, N-(2-((1r,4r)-4-(4-(1-(4-((R)-2,6-dioxopiperidin-3-yl)-3,5-difluorophenyl)azetidine-3-carbonyl)piperazin-1-yl)cyclohexyl)-6-(oxetan-3-yloxy)-2H-pyrazolo[3,4-b]pyridin-5-yl)-6-(trifluoromethyl)picolinamide]
Dmax [1, 3]: 99%
DC50 [1, 4]: 0.6 nM

SMILES: CC1(C)CN(c2cc(F)c([C@H]3CCC(=O)NC3=O)c(F)c2)C[C@@H]1C(=O)N1CCN([C@H]2CC[C@H](n3cc(NC(=O)c4coc(-c5ccnc(NCC(F)(F)F)c5)n4)c(C(F)F)n3)CC2)CC1 [Example 18, N-(3-(difluoromethyl)-1-((1R,4r)-4-(4-((R)-1-(4-((R)-2,6-dioxopiperidin-3-yl)-3,5-difluorophenyl)-4,4-dimethylpyrrolidine-3-carbonyl)piperazin-1-yl)cyclohexyl)-1H-pyrazol-4-yl)-2-(2-((2,2,2-trifluoroethyl)amino)pyridin-4-yl)oxazole-4-carboxamide]
Dmax [1, 5]: 95%
DC50 [1, 6]: 100 nM
Dmax [1, 3]: 97%
DC50 [1, 4]: 9.7 nM

SMILES: COc1cc2nn([C@H]3CC[C@H](CN4CCN(C(=O)C5CCN(c6ccc(N7CCC(=O)NC7=O)cc6)CC5)CC4)CC3)cc2cc1NC(=O)c1cccc(C(F)(F)F)n1 [Example 7, N-(2-((1r,4r)-4-((4-(1-(4-(2,4-dioxotetrahydropyrimidin-1(2H)-yl)phenyl)piperidine-4-carbonyl)piperazin-1-yl)methyl)cyclohexyl)-6-methoxy-2H-indazol-5-yl)-6-(trifluoromethyl)picolinamide]
DC50 ([1]; Degradation (Karpas-299), comparison table, Linker Type A, read-out: Compound (Linker Type A) DC50): 137 nM
Dmax ([1]; Degradation (Karpas-299), comparison table, Linker Type A, read-out: Compound (Linker Type A) Dmax (%)): 66%
Dmax [1, 3]: 66%
DC50 [1, 4]: 137 nM

SMILES: CC(C)(O)c1cc2nn([C@H]3CC[C@H](N4CCN(C(=O)[C@@H]5CCN(c6cc(F)c([C@H]7CCC(=O)NC7=O)c(F)c6)C5)CC4)CC3)cc2cc1NC(=O)c1cccc(C(F)(F)F)n1 [Example 39, N-(2-((1R,4r)-4-(4-((R)-1-(4-((R)-2,6-dioxopiperidin-3-yl)-3,5-difluorophenyl)pyrrolidine-3-carbonyl)piperazin-1-yl)cyclohexyl)-6-(2-hydroxypropan-2-yl)-2H-indazol-5-yl)-6-(trifluoromethyl)picolinamide]
Dmax [1, 5]: 96%
DC50 [1, 6]: 4.6 nM
Dmax [1, 3]: 99%
DC50 [1, 4]: 0.8 nM

SMILES: CC(C)(O)c1cc2nn([C@H]3CC[C@H](N4CCN(C[C@H]5CCN(c6cc(F)c(N7CCC(=O)NC7=O)c(F)c6)C5)CC4)CC3)cc2cc1NC(=O)c1ccc2cc(C#N)cnn12 [Example 112, 3-cyano-N-(2-((1R,4r)-4-(4-(((R)-1-(4-(2,4-dioxotetrahydropyrimidin-1(2H)-yl)-3,5-difluorophenyl)pyrrolidin-3-yl)methyl)piperazin-1-yl)cyclohexyl)-6-(2-hydroxypropan-2-yl)-2H-indazol-5-yl)pyrrolo[1,2-b]pyridazine-7-carboxamide]
Dmax [1, 3]: 96%
DC50 [1, 4]: 8.6 nM

More lines, now with the values ahead:

Dmax [1, 3]: 98%
DC50 [1, 4]: 1.3 nM
DC50 [2]: 8.3 nM
Dmax [2]: 100%
SMILES: C[C@H]1CN(CC2CN(c3cc(F)c([C@H]4CCC(=O)NC4=O)c(F)c3)C2)CCN1[C@H]1CC[C@H](n2cc3cc(NC(=O)c4ccc5cc(C#N)cnn45)c(C(C)(C)O)cc3n2)CC1 [Example 306, 3-cyano-N-(2-((1S,4r)-4-((S)-4-((1-(4-((R)-2,6-dioxopiperidin-3-yl)-3,5-difluorophenyl)azetidin-3-yl)methyl)-2-methylpiperazin-1-yl)cyclohexyl)-6-(2-hydroxypropan-2-yl)-2H-indazol-5-yl)pyrrolo[1,2-b]pyridazine-7-carboxamide]

Dmax [1, 3]: 96%
DC50 [1, 4]: 1.5 nM
DC50 [2]: 439 nM
Dmax [2]: 97%
SMILES: CC(C)(O)c1cc2nn([C@H]3CC[C@H](N4CCN(CCc5cc(F)c([C@H]6CCC(=O)NC6=O)c(F)c5)CC4)CC3)cc2cc1NC(=O)c1ccc2cc(Br)cnn12 [Example 414, 3-bromo-N-(2-((1R,4r)-4-(4-(4-((R)-2,6-dioxopiperidin-3-yl)-3,5-difluorophenethyl)piperazin-1-yl)cyclohexyl)-6-(2-hydroxypropan-2-yl)-2H-indazol-5-yl)pyrrolo[1,2-b]pyridazine-7-carboxamide]

Dmax [1, 3]: 98%
DC50 [1, 4]: 0.24 nM
DC50 [2]: 2.7 nM
Dmax [2]: 100%
SMILES: COc1cc2nn([C@H]3CC[C@H](N4CCN(C(=O)C5CN(c6cc(F)c([C@H]7CCC(=O)NC7=O)c(F)c6)C5)CC4)CC3)cc2cc1C(=O)Nc1cnn2cccnc12 [Example 344, 2-((1r,4r)-4-(4-(1-(4-((R)-2,6-dioxopiperidin-3-yl)-3,5-difluorophenyl)azetidine-3-carbonyl)piperazin-1-yl)cyclohexyl)-6-methoxy-N-(pyrazolo[1,5-a]pyrimidin-3-yl)-2H-indazole-5-carboxamide]

Dmax [1, 3]: 97%
DC50 [1, 4]: 1.1 nM
DC50 [2]: 12 nM
Dmax [2]: 97%
SMILES: CC(C)(O)c1cc2nn([C@H]3CC[C@H](N4CCN(CCCc5cc(F)c([C@H]6CCC(=O)NC6=O)c(F)c5)CC4)CC3)cc2cc1NC(=O)c1ccc2cc(C#N)cnn12 [Example 357, 3-cyano-N-(2-((1R,4r)-4-(4-(3-(4-((R)-2,6-dioxopiperidin-3-yl)-3,5-difluorophenyl)propyl)piperazin-1-yl)cyclohexyl)-6-(2-hydroxypropan-2-yl)-2H-indazol-5-yl)pyrrolo[1,2-b]pyridazine-7-carboxamide]

Dmax [1, 3]: 97%
DC50 [1, 4]: 0.2 nM
SMILES: CC(C)(O)c1cc2nn([C@H]3CC[C@H](CN4CCN(C(=O)C5CN(c6cc(F)c([C@H]7CCC(=O)NC7=O)c(F)c6)C5)CC4)CC3)cc2cc1NC(=O)c1csc(-c2cn[nH]c2)n1 [Example 434, N-(2-((1r,4r)-4-((4-(1-(4-((R)-2,6-dioxopiperidin-3-yl)-3,5-difluorophenyl)azetidine-3-carbonyl)piperazin-1-yl)methyl)cyclohexyl)-6-(2-hydroxypropan-2-yl)-2H-indazol-5-yl)-2-(1H-pyrazol-4-yl)thiazole-4-carboxamide]
